Measured values reported in article PMC6934184, “Selective DNA-PKcs inhibition extends the therapeutic index of localized radiotherapy and chemotherapy” (The Journal of Clinical Investigation, 2019).

Molecular target: T1, WNK2 (Homo sapiens, UniProt Q9Y3S1)
T1 construct: purchased Thermo Fisher Scientific (Life Technologies) SelectScreen
Assay: SelectScreen LanthaScreen
Type: binding
Settings: read-out: % displacement
How it was run: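 Percent values come from Thermo SelectScreen profiling of NU5455, combining activity and binding assays. CSF1R was run in Z'LYTE format at Km app ATP, and CAMK1 in Adapta format with ATP listed at 10.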

T1 sequence (Q9Y3S1 whole entry): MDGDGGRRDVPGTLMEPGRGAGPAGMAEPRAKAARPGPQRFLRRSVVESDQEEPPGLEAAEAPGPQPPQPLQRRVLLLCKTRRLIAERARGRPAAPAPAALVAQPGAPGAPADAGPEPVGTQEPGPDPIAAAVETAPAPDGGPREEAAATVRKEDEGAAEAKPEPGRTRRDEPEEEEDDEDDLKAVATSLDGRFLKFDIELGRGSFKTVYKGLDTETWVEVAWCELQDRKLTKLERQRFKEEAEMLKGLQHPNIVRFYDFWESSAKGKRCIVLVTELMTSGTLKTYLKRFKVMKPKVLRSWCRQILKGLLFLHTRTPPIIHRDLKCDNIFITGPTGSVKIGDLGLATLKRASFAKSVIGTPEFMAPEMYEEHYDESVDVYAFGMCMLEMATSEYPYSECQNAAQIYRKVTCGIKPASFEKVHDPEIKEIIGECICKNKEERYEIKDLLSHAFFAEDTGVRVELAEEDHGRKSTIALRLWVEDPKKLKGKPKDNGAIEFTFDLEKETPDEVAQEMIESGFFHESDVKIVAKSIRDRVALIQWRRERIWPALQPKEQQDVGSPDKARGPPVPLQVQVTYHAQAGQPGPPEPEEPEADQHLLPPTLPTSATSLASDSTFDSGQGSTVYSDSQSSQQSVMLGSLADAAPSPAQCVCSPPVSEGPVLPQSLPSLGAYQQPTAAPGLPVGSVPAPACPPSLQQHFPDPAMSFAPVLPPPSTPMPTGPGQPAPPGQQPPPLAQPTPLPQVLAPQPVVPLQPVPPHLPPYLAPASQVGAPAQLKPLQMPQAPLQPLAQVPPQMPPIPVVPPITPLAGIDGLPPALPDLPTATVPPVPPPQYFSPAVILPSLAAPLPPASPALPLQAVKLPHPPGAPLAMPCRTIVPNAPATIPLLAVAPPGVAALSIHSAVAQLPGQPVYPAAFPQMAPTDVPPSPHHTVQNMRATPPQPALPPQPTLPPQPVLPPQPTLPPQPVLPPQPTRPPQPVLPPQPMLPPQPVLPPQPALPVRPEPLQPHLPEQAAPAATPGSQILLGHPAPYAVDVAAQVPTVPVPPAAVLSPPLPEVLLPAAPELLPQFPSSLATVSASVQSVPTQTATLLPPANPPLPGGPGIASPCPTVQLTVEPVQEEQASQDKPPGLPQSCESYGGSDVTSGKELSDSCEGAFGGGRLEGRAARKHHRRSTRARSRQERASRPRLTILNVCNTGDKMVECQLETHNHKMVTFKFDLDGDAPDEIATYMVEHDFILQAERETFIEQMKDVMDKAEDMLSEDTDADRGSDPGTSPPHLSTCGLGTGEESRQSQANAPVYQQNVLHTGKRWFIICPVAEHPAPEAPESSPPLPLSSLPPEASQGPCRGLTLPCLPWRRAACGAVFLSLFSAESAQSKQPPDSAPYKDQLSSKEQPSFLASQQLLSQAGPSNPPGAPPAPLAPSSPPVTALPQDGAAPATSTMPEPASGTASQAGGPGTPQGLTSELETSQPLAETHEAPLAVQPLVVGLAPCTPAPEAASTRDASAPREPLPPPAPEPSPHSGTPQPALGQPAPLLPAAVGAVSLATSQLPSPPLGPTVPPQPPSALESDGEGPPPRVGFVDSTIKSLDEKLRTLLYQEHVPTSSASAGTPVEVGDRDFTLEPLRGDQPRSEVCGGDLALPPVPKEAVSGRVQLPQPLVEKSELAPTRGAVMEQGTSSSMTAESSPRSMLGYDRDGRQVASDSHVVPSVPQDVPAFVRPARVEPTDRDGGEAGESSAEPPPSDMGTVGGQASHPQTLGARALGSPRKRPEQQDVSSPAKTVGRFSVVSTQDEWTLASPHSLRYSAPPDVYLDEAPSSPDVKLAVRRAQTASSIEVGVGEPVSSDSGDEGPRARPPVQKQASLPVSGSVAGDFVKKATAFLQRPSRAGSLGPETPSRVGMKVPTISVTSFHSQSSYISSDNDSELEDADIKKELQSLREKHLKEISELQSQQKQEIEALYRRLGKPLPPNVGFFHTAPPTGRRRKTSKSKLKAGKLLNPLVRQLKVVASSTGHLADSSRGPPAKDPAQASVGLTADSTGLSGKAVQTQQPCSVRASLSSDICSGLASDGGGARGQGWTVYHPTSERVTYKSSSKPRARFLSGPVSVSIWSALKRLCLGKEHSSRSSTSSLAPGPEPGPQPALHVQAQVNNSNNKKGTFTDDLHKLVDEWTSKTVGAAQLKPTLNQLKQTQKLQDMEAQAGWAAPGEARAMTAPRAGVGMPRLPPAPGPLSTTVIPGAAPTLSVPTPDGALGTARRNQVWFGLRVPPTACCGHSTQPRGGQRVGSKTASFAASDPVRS

**Q.** With `CN(C(=O)CN1CCOCC1)c1ccc2sc3c(-c4cccc5c(=O)cc(N6CC7CCC(C6)O7)oc45)cccc3c2c1` [NU5455] as the compound, how does the inhibition at 1 µM read?
**A.** The inhibition at 1 µM was -2.5%.
